# Legend:
# [1] = system: RS4;11 cell line; assay: Cell viability, RS4;11 cells; type: cell-based; conditions: RS4;11, 48 h
# Procedure: Figure 4 Indole-2-carboxylic acids induce the hallmarks of apoptosis in MCL-1-dependent cancer cell line H929. (a) Digitonin-permeabilized H929 cells were treated with 10 μM BH3 peptides for 4 h, and intact H929 cells were incubated with increasing concentrations (0.1–10 μM) of A-1208746 for 4 h before assessing the levels of cytochrome c released into the cytosol. (b) H929 and RS4;11 cells were incubated with increasing concentrations of MCL-1 inhibitors or the BCL-2-selective inhibitor ABT-199 (venetoclax) for 48 h before determining cell viability. Cell killing IC50s are plotted with each value representing the mean of three separate experiments. Error bars represent the S.E.M. (c) H929 cells were incubated with increasing concentrations of MCL-1 inhibitors in the presence or absence of the pan-caspase inhibitor QVD (100 μM) for 4 h before assessing caspase-3/-7 activation, mitochondrial membrane polarization, and the exposure of phosphatidylserine. […]
# Adherent cell lines were seeded at 50 000 cells per well in 96-well plates and treated for 48 h with compounds diluted in half-log steps starting at 30 μM and ending at 0.001 μM. […] Effects on proliferation and viability were determined using CellTiter-Glo reagent from Promega (Madison, WI, USA) according to the manufacturer's instructions. IC50 values were determined by non-linear regression analysis of the concentration response data.
# [2] = target: T1, BCL-XL–BCL-XS interactions (Homo sapiens, UniProt Q07817); assay: Mammalian two-hybrid assay, BCL-XL–BCL-XS, HeLa cells; type: cell-based; conditions: 24 h, luciferase two-hybrid
# T1 construct: expressed in transfected cells; host or cells: HeLa cells stably expressing a GAL4-luciferase reporter
# T1 sequence (Q07817 whole entry, the tested form may be a part): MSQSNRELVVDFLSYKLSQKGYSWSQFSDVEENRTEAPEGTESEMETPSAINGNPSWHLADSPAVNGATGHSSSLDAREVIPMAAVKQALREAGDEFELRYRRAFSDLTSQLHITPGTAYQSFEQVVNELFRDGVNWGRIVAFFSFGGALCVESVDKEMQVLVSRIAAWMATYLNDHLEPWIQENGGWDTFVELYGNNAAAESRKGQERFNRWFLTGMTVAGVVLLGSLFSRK
# Procedure: (a) H929 cells were treated with increasing concentrations of A-1210477 for 4 h. […] All data represent the mean of triplicate experiments, with error bars indicating the S.D. (b) Quantitative measurement of protein–protein interactions using a luciferase-based mammalian two-hybrid assay. […] All data represent the means of triplicate experiments, with error bars indicating the S.Ds.
# HeLa cells stably expressing a GAL4-luciferase reporter were seeded into 10 cm dishes at 5 × 10^5 cells per plate. In all, 24 μg of a plasmid expressing both the ‘bait' and ‘prey' fusion proteins (GAL4DBD-BIM and VP16AD-BCL-2, GAL4DBD-BCL-XL and VP16AD- BCL-XS, or GAL4DBD-MCL-1 and VP16AD-NOXA, respectively) were mixed with 1.5 ml OptiMEM (Invitrogen). Separately, 24 μl Lipofectamine 2000 (Invitrogen) were mixed with 1.5 ml OptiMEM. Both solutions were incubated for 5 min (RT) and then mixed together for 20 min. Three milliliters of the mixture was added to cells in 12 ml culture medium lacking antibiotics, incubated at 37 °C for 24 h, and then transferred to 96-well plates at 20 000 cells per well. Compounds were added in half-log dilutions, starting from 1 μM and ending at 0.0001 μM for 24 h, and luciferase activity was assessed using ONE-Glo reagent (Promega). All data were plotted as the percentage of complex remaining relative to untreated controls.
structure (smiles),measurement,setting,value
Cc1nn(C)c(COc2ccc(N3CCN(S(=O)(=O)N(C)C)CC3)cc2)c1-c1cccc2c(CCCOc3cccc4ccccc34)c(C(=O)O)n(CCN3CCOCC3)c12 [A-1210477],effect on cell viability,[1],no effect
same,effect on BCL-XL–BCL-XS interactions,[2],no effect

# Reference: PMC4669759 (Cell Death & Disease, 2015)
